Some test systems named below: SNB-19; SF-539; HCT-15; OVCAR-8; SK-MEL-5; HT-29; KM12; MDA-N; BT-549; A549; NCI-H226; SK-MEL-28; SF-268; SF-295; UACC-62; OVCAR-3; M14; Malme-3M; T47D.
Experiment in all cases: NCI-60 cell line screen, 48 h

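In this assay, cells in 96-well plates receive the compound at five concentrations for 48 hours. Endpoints are linearly interpolated between the surrounding concentrations. GI50 marks 50% less growth.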 The source made the active and inactive calls. Cut-off read from the data, not from the text of the source: active = GI50 up to about 1.1 µM and inactive = higher. Square brackets hold non-standard residues; d marks the D form. Peptide text beside a SMILES is read from it. Phe(4-Cl) = N[CH](Cc1ccc(Cl)cc1)C(=O)O; 2Nal = N[CH](Cc1ccc2ccccc2c1)C(=O)O; 3Pal = N[CH](Cc1cccnc1)C(=O)O Bounds are passed on as bounds.

Consider 12 molecules from ChEMBL document CHEMBL1201862, “PubChem BioAssay data set” (2004).

On to `Cc1nc(C(N)=S)sc1C(/C=C/c1ccc(Cl)c(Cl)c1)=N/NC(C)(C)C`, for which the GI50 in the test with SNB-19 is > 100 µM (inactive); in the test on SF-539, > 100 µM (inactive); in the test with HCT-15, over 100 µM; in the test with OVCAR-8, > 100 µM (inactive); in the test with SK-MEL-5 it was > 100 µM (inactive); in the test with HT-29 it was > 100 µM (inactive). Besides, the GI50 in the test with KM12 was > 100 µM (inactive); in the test with MDA-N, > 100 µM (inactive); in the test with BT-549 it was > 100 µM (inactive); in the test on A549, > 100 µM (inactive); with NCI-H226, 56.5 µM (inactive); in the test on SK-MEL-28, > 100 µM (inactive). The GI50 in the test on SF-268, in the test with SF-295 and with UACC-62 was > 100 µM (inactive) throughout.

Take `[O-]c1c[n+](-c2ccccc2)no1`: the GI50 is > 100 µM (inactive) in the test with SNB-19; > 100 µM (inactive) with SF-539; over 100 µM in the test on HCT-15; > 100 µM (inactive) with OVCAR-3; > 100 µM (inactive) with SK-MEL-5; > 100 µM (inactive) in the test on M14. For the same molecule, the GI50 with HT-29, in the test with KM12, in the test on MDA-N, with BT-549, in the test on A549 and in the test on Malme-3M was > 100 µM (inactive) in each case. The GI50 with SK-MEL-28, in the test with SF-268, with T47D, with SF-295 and in the test with UACC-62 was > 100 µM (inactive) each time.

As to `CC(=O)NC(Cc1ccc2ccccc2c1)C(=O)NC(Cc1ccc(Cl)cc1)C(=O)NC(Cc1cccnc1)C(=O)NC(CO)C(=O)NC(Cc1ccc(O)cc1)C(=O)NC(CCCN=C(N)N)C(=O)NC(CC(C)C)C(=O)NC(CCCN=C(N)N)C(=O)N1CCCC1C(=O)NC(C)C(N)=O` (configuration not stated) (Ac-[2Nal][Phe(4-Cl)][3Pal]SYRLRPA-NH2; configuration not given here), the GI50 is > 100 µM (inactive) in the test with SNB-19; > 100 µM (inactive) in the test on SF-539; over 100 µM in the test on HCT-15; > 100 µM (inactive) with OVCAR-8; 49.9 µM (inactive) in the test on OVCAR-3; 94 µM (inactive) with SK-MEL-5. Also, the GI50 with M14, with HT-29, in the test with KM12, with MDA-N, with BT-549 and with A549 was > 100 µM (inactive) each time. Moreover, the GI50 in the test with Malme-3M is 28.8 µM (inactive); in the test with NCI-H226, > 100 µM (inactive); in the test on UACC-62, 77.4 µM (inactive).

In the case of `COC(=O)/C=C/N1CC1`, the GI50 in the test on SNB-19 is 8.15 µM (inactive); in the test with SF-539 it was > 10 µM (inactive); with HCT-15, over 10 µM; with OVCAR-8, > 10 µM (inactive); in the test on OVCAR-3, 5.81 µM (inactive); in the test with SK-MEL-5, > 10 µM (inactive). Further, the GI50 in the test on M14 is > 10 µM (inactive); with HT-29 it was 3.28 µM (inactive); in the test on KM12, > 10 µM (inactive); with BT-549 it was > 10 µM (inactive); in the test on A549, > 10 µM (inactive); in the test with Malme-3M it was > 10 µM (inactive). The GI50 in the test with NCI-H226, in the test with SK-MEL-28, with SF-268, with T47D, in the test with SF-295 and in the test with UACC-62 was > 10 µM (inactive) in each case.

Take `COC(=O)C(CC12CC3CC(CC(C3)C1)C2)NC(=O)C(N)CC(=O)O` (configuration not stated): the GI50 with SNB-19 is > 100 µM (inactive); in the test on HCT-15 it was over 100 µM; with OVCAR-8 it was > 100 µM (inactive); with SK-MEL-5 it was > 100 µM (inactive); with HT-29 it was > 100 µM (inactive); in the test with KM12, > 100 µM (inactive). The GI50 in the test on MDA-N, in the test on BT-549, in the test with A549, with SK-MEL-28, with SF-268 and in the test on T47D was > 100 µM (inactive) in each case. For the same molecule, the GI50 in the test with SF-295 and with UACC-62 was > 100 µM (inactive) in each case.

On to `Cc1cc(S(N)(=O)=O)c(S/C(=N\Nc2ccc([N+](=O)[O-])cc2)c2ccc(Cl)cc2)cc1Cl`, for which the GI50 in the test with SNB-19 is 3.33 µM (inactive); in the test on SF-539, 1.96 µM (inactive); in the test on HCT-15, 4.3 µM; with OVCAR-3, 1.74 µM (inactive); in the test on SK-MEL-5, 3.48 µM (inactive); in the test on M14, 4.09 µM (inactive). Also, the GI50 was 1.87 µM (inactive) in the test on HT-29; 1.94 µM (inactive) in the test on KM12; 4.65 µM (inactive) with BT-549; 2.55 µM (inactive) in the test on A549; 1.59 µM (inactive) in the test on Malme-3M; 2.22 µM (inactive) in the test on NCI-H226. Further, the GI50 in the test with SK-MEL-28 is 0.573 µM (active); with SF-268, 2.3 µM (inactive); with T47D, 3.07 µM (inactive); in the test on SF-295 it was 2.11 µM (inactive); with UACC-62, 4.57 µM (inactive).

With `CC[C@@H]1/C=C/C=C/C[C@H](C)[C@@H](O)[C@@H](C)C(=O)[C@H](C)[C@@H](O)[C@H](C)C(=O)[C@H](C)[C@@H](O)[C@H](C)/C=C/C(=O)O[C@H]2[C@@H](C)[C@@H](CC1)O[C@@]1(CC[C@@H](C)[C@@H](CC(C)O)O1)[C@@H]2C` (some centres not stated), the GI50 in the test with SNB-19 is 0.00491 µM (active); in the test on SF-539 it was 6.46 µM (inactive); with HCT-15, 4.06 µM; in the test with OVCAR-8 it was 0.00464 µM (active); in the test with OVCAR-3, 2.62 µM (inactive); in the test on SK-MEL-5 it was < 0.0025 µM (active). Further, the GI50 with M14 is 2.47 µM (inactive); in the test on HT-29, 2.94 µM (inactive); in the test on KM12, 3.41 µM (inactive); with MDA-N it was 3.06 µM (inactive); in the test on BT-549 it was 4.32 µM (inactive); in the test on A549, 0.012 µM (active). The GI50 with Malme-3M was 6.34 µM (inactive); in the test with SK-MEL-28, 10.6 µM (inactive); in the test with SF-268 it was 6.98 µM (inactive); in the test on T47D it was < 0.0025 µM (active); in the test with SF-295, < 0.0025 µM (active); with UACC-62, 3.32 µM (inactive).

Take `COC1=CC2C(c3cc4ccccc4n3S(=O)(=O)c3ccccc3)CC1CN2C(=O)OCc1ccccc1` (configuration not stated): the GI50 in the test on HCT-15 is 31.1 µM; in the test on OVCAR-8, 50.8 µM (inactive); in the test with OVCAR-3, 19.5 µM (inactive); with SK-MEL-5, 25.6 µM (inactive); with M14, 19.6 µM (inactive); with HT-29, 23.6 µM (inactive). The GI50 in the test on KM12 was 26.9 µM (inactive); with MDA-N, 34.5 µM (inactive); in the test on BT-549, 25 µM (inactive); with A549, 20.5 µM (inactive); with Malme-3M it was 19.8 µM (inactive); in the test with NCI-H226, 27.4 µM (inactive). Moreover, the GI50 in the test on SF-295 was 25 µM (inactive); with UACC-62 it was 29.8 µM (inactive).

On to `O=C(Nc1ccc(Cl)cc1)c1cc(S(=O)(=O)Nc2n[nH]c(=O)n2-c2ccccc2)c(S)cc1Cl`, for which the GI50 in the test with SNB-19 was > 100 µM (inactive); in the test on SF-539, > 100 µM (inactive); in the test on HCT-15, over 100 µM; with OVCAR-8 it was > 100 µM (inactive); in the test with OVCAR-3, 6.28 µM (inactive); with SK-MEL-5 it was > 100 µM (inactive). Moreover, the GI50 with M14, in the test with HT-29, in the test on KM12, with BT-549, in the test on A549 and with Malme-3M was > 100 µM (inactive) each time. Further, the GI50 in the test on NCI-H226, in the test on SK-MEL-28, in the test on SF-268, with T47D, in the test with SF-295 and with UACC-62 was > 100 µM (inactive) in each case.

For the molecule `O=C(O)CSC(CC(=O)c1ccc(Cl)cc1)c1ccc(Cl)cc1` (configuration not stated), the GI50 in the test with SNB-19 is 42 µM (inactive); in the test with SF-539, 36.6 µM (inactive); in the test with HCT-15, 22.1 µM; in the test on OVCAR-8, 22.3 µM (inactive); in the test with OVCAR-3, 20.7 µM (inactive); with SK-MEL-5, 34.4 µM (inactive). The GI50 was 42.1 µM (inactive) in the test with M14; 22.1 µM (inactive) with HT-29; 8.07 µM (inactive) in the test with KM12; 20.6 µM (inactive) with MDA-N; 29.9 µM (inactive) in the test on BT-549; 38.4 µM (inactive) with A549. For the same molecule, the GI50 in the test on SF-268 is 25.1 µM (inactive); with T47D, 29.3 µM (inactive); in the test with SF-295, 42.4 µM (inactive); in the test on UACC-62, 39.2 µM (inactive).

As for `S=C1c2ccccc2N=C(NC2CCCC2)C2CSCN12` (configuration not stated), the GI50 was > 100 µM (inactive) in the test on SNB-19; over 100 µM with HCT-15; > 100 µM (inactive) with OVCAR-8; 97.1 µM (inactive) in the test with OVCAR-3; 49.2 µM (inactive) with SK-MEL-5; 91.8 µM (inactive) with M14. Further, the GI50 in the test on HT-29 was 48.5 µM (inactive); in the test with KM12, 20.4 µM (inactive); in the test with BT-549 it was > 100 µM (inactive); in the test on A549, > 100 µM (inactive); in the test on Malme-3M, > 100 µM (inactive); with NCI-H226, 88.5 µM (inactive). The GI50 was 89.7 µM (inactive) with SK-MEL-28; 49.2 µM (inactive) in the test on SF-268; 48.3 µM (inactive) with T47D; > 100 µM (inactive) in the test on SF-295; 43.5 µM (inactive) in the test with UACC-62.

Regarding `CC(=O)C1=C(C)N(c2ccc(C)cc2)C2(O)C=CC(O)=C3C(=O)c4ccccc4C(=O)C312` (configuration not stated), the GI50 in the test with SNB-19 is 22.6 µM (inactive); in the test with SF-539, 23.8 µM (inactive); in the test on HCT-15, 4.49 µM; with OVCAR-8, 16.1 µM (inactive); in the test on OVCAR-3, 3.91 µM (inactive); in the test on SK-MEL-5, 7.4 µM (inactive). Also, the GI50 in the test on M14 is 18.6 µM (inactive); in the test with HT-29, 3.89 µM (inactive); in the test with KM12, 7.41 µM (inactive); with BT-549 it was 11 µM (inactive); in the test on A549, 18.6 µM (inactive); in the test on Malme-3M, 1.91 µM (inactive). Besides, the GI50 in the test with NCI-H226 is 22.8 µM (inactive); in the test with SK-MEL-28, 13.1 µM (inactive); in the test with SF-268 it was 15.9 µM (inactive); with T47D it was 9.95 µM (inactive); in the test with SF-295 it was 13.7 µM (inactive); with UACC-62, 10.5 µM (inactive).
